Reference: paper PMC9848270, “Synthesis and biological assessment of indole derivatives containing penta-heterocycles scaffold as novel anticancer agents towards A549 and K562 cells” (Journal of Enzyme Inhibition and Medicinal Chemistry, 2023)
Like-named read-outs stand apart in the source and are kept apart here.

Tests used:
[1] = test system: human chronic myeloid leukaemia cells (K562); assay: MTT antiproliferative assay, K562; format: cell-based; conditions: for inhibition at 10 µM: K562, 10 μM, read-out: Inhibition rate, K562
Experimental: (§1) A549, PC-3, HepG2 and K562 cells were purchased from the Kunming cell bank of the Chinese academy of sciences. All cell lines were cultured in DMEM or RPMI 1640 complete medium. Logarithmic growth cells were cultured in 96-well plates at a concentration of 10^4 cells per well and pre-cultured for 24 h before adding test compounds. The MTT test with 5-Fluorouracil and Gefitinib as reference compounds were used to evaluate antiproliferative activity of target compounds in four human cancer line cells. For the estimation of the inhibition concentration (IC50), the Graph Pad Prism (GraphPad Software, San Diego, CA) was used.

[2] = test system: EGFR, p-EGFR, Akt and p-Akt levels in A549; assay: Western blot, A549; format: cell-based, human; conditions: 0.5 and 1 μM, 48 h
Experimental: (§2) Cells were treated with different concentrations of compound for 48 h. After incubation, the cells were washed and collected. Total cell extracts were prepared with RIPA buffer, containing protease inhibitor and phosphatase inhibitor. The lysate was incubated at 0 °C for 60 min, and centrifuged at 12,000 rpm for 15 min at 4 °C to remove cellular debris. Next, the protein concentration was detected using BCA protein concentration assay kit (Beyotime, Shanghai). 20 µg of total protein was subjected to gel electrophoresis and transferred to PVDF membranes (Millipore, Burlington, MA, USA). After blocking in 5% BSA blocking buffer for 60 min, then incubated with primary antibody overnight at 4 °C, washed three times with TBST for 5 min each, followed by incubation with secondary antibody and washed. The blot was developed and exposed by chemiluminescence developer solution, which was placed on a chemiluminescence developer (Pierce, Rockford, Illinois, USA).

[3] = test system: MDM2 and p53 levels in K562; assay: Western blot, K562; format: cell-based, human; conditions: 0.5 µM, 48 h
Experimental: as §2

K562 cells [4] = assay: Cell cycle analysis (PI staining, flow cytometry), K562; format: cell-based, human
Experimental: (§3) A549 or K562 cells were separately seeded at 4.0 × 10^5cells/well in six-well plates and incubated for 24 h until adherent. […] After treatment, the cells were collected, and washed twice with pre-cooled PBS and then fixed with ice-cold ethanol (70%), subsequently kept 4 °C for overnight. After washing twice with PBS, cells were incubated at 37 °C with 100 µ L RNase A for 30 min. After this, cells were incubated with 400 µL PI for 30 min at 4 °C. Finally, the cell cycle distribution of compound 10 b was analysed via the BD FACSCalibur flow cytometry (American BD Corporation Shanghai Co. Ltd.)

A549 cells [5] = assay: DAPI staining, A549; format: cell-based, human; conditions: 1, 2 and 4 µM, 48 h
Experimental: DAPI staining assay, A549 or K562 cells were separately seeded at 4.0 × 10^5 cells per well in six–well plates and incubated for 24 h until adherent. Next, the cells were treated with 10 b at 0, 1, 2 and 4 µM for 48 h. Then the cells were fixed with 4% paraformaldehyde for 15 min, and 1 ml/well of DAPI staining dye was added for 20 min in the dark. After adding the anti-fluorescence quencher, the cells can be imaged by an inverted fluorescence microscope.

A549 cells [6] = assay: Wound healing migration assay, A549; format: cell-based, human; conditions: 1 µM
Experimental: After 24 h of growth, cells were placed in a 6-well plate, scratched using a 10 µL pipet tip on the cell surface. Then, gently wash twice with medium to remove the detached cells. The cells were treated with compound 10 b with 0.5 and 1.0 µM followed by 48 h incubation and photographed using an inverted microscope.

[7] = test system: human liver cancer cells (HepG2); assay: MTT antiproliferative assay, HepG2; format: cell-based; conditions: for inhibition at 10 µM: read-out: Inhibition rate, HepG2; for IC50: MTT assay, 48 h, read-out: In vitro cytotoxicity IC50, HepG2
Experimental: as §1

[8] = test system: normal cell line (HEK293); assay: MTT cytotoxicity, normal cell line HEK293; format: cell-based, human; conditions: Homo sapiens, HEK293; 10 μM; read-out: Inhibition rate, HEK293
[9] = MTT cytotoxicity, normal cell line HEK293; format: cell-based, human; conditions: human; for IC50 at 48 h: HEK293 cells (normal cell line), MTT assay, normal cell line, CC50, read-out: In vitro cytotoxicity IC50, HEK293; for CC50: HEK293 cells, Table 2, unit inferred, repeats Table 1
A549 cells [10] = assay: Annexin V-FITC/PI apoptosis flow cytometry, A549; format: cell-based, human; conditions: 48 h; for Q2, late apoptotic cells, A549: annexin V-FITC/PI
Experimental: (§4) Annexin-V/FITC assay, after the adherent cells grew stably in the 6-well plate, each group was reacted with different concentrations of compound solutions for 48 h. Then, cells were collected by trypsinization without EDTA, rinsed twice with PBS, followed by the Annexin V-FITC/PI apoptosis detection kit (Solarbio, Bei Jing, China) according to the kit instructions, flow cytometry by BD FACSCalibur instrument (American BD Company Shanghai Co., Ltd.).

A549 cells [11] = assay: Cell cycle analysis (PI staining, flow cytometry), A549; format: cell-based, human; conditions: for DNA contents of the live population, G0/G1 phase, A549 / DNA contents of the live population, G2/M phase, A549 / DNA contents of the live population, S phase, A549: 4 µM, 48 h
Experimental: as §3

[12] = test system: human prostate cancer cells (PC-3); assay: MTT antiproliferative assay, PC-3; format: cell-based; conditions: for IC50: 48 h, MTT assay, read-out: In vitro cytotoxicity IC50, PC-3; for inhibition at 10 µM: read-out: Inhibition rate, PC-3
Experimental: as §1

[13] = test system: human non-small cell lung cancer cells (A549); assay: MTT antiproliferative assay, A549; format: cell-based; conditions: for inhibition at 10 µM: A549, 10 μM, read-out: Inhibition rate, A549
Experimental: as §1

K562 cells [14] = assay: Annexin V-FITC/PI apoptosis flow cytometry, K562; format: cell-based, human; set-up: total numbers of apoptotic cells, K562: dose or concentration left out as unconfirmed; conditions: 48 h; for Q2, late apoptotic cells, K562: annexin V-FITC/PI
Experimental: as §4

[15] = K562, 48 h, MTT assay, 48 h, read-out: In vitro cytotoxicity IC50, K562
[16] = K562, Table 2, unit inferred, repeats Table 1, read-out: K562 (IC50, Table 2)
[17] = A549, 48 h, MTT assay, 48 h, read-out: In vitro cytotoxicity IC50, A549
[18] = A549, Table 2, unit inferred, repeats Table 1, read-out: A549 (IC50, Table 2)

Compound: COc1cc(-c2nnc(SCC(=O)Nc3cc(-c4c[nH]c5ccccc45)n[nH]3)s2)cc(OC)c1OC [Compound 10b, N-(3-(1H-indol-3-yl)-1H-pyrazol-5-yl)-2-((5-(3,4,5-trimethoxyphenyl)-1,3,4-thiadiazol-2-yl)thio)acetamide]
- inhibition at 10 µM [1]: 97.2 ± 0.526%
- IC50 [1, 15]: 13.2 ± 10 nM
- IC50 [1, 16]: 13.2 ± 10 nM
- IC50 ([1]; K562, as stated in abstract and conclusion, read-out: IC50 against K562): 10 nM
- p-Akt protein level in A549 [2]: downregulated in a dose dependently manner
- p-EGFR protein level in A549 [2]: downregulated in a dose dependently manner
- MDM2 expression in K562 [3]: significantly downregulated
- p53 protein level in K562 [3]: upregulated in a certain extent
- DNA contents of the live population, G2/M phase, K562 (K562 cells [4]; 4 µM, 48 h): 27.60%
- DNA contents of the live population, S phase, K562 (K562 cells [4]; 4 µM, 48 h): 26.47%
- cell cycle arrest in words, K562 (K562 cells [4]; dose-dependent, 1, 2, 4 µM): arresting cells in the G2/M phase
- apoptosis by DAPI staining, in words (A549 cells [5]): induced apoptosis
- migration of A549 cells, in words (A549 cells [6]): could inhibit the migration of A549 cells
- inhibition at 10 µM [7]: 92.1 ± 3.01%
- IC50 [7]: 210 ± 70 nM
- inhibition at 10 µM [8]: 77.9 ± 2.08%
- IC50 at 48 h [9]: 1120 ± 1390 nM
- CC50 [9]: 1120 ± 1390 nM
- Q2, late apoptotic cells, A549 (A549 cells [10]; 1 μM): 8.36%
- Q2, late apoptotic cells, A549 (A549 cells [10]; 2 μM): 16.0%
- Q2, late apoptotic cells, A549 (A549 cells [10]; 4 μM): 35.7%
- DNA contents of the live population, G0/G1 phase, A549 (A549 cells [11]): 38.60%
- DNA contents of the live population, G2/M phase, A549 (A549 cells [11]): 24.33%
- DNA contents of the live population, S phase, A549 (A549 cells [11]): 27.47%
- cell cycle arrest in words, A549 (A549 cells [11]; dose-dependent, 1, 2, 4 µM): arresting cells in the G2/M phase
- IC50 ([12]; Homo sapiens): 850 nM
- inhibition at 10 µM ([12]; Homo sapiens): 88.4 ± 5.99%
- IC50 [12]: 853 ± 720 nM
- inhibition at 10 µM [13]: 96.2 ± 0.737%
- IC50 [13, 17]: 120 nM
- IC50 [13, 18]: 124 ± 50 nM
- IC50 ([13]; A549, as stated in abstract and conclusion, read-out: IC50 against A549): 12 nM
- Q2, late apoptotic cells, K562 (K562 cells [14]; 1 μM): 58.2%
- Q2, late apoptotic cells, K562 (K562 cells [14]; 2 μM): 67.8%
- Q2, late apoptotic cells, K562 (K562 cells [14]; 4 μM): 73.2%

Compound: Nc1ccc(-c2nnc(SCC(=O)Nc3cc(-c4c[nH]c5ccccc45)n[nH]3)n2N)cc1 [Compound 11l, N-(3-(1H-indol-3-yl)-1H-pyrazol-5-yl)-2-((4-amino-5–(4-aminophenyl)-4H-1,2,4-triazol-3-yl)thio)acetamide]
- inhibition at 10 µM [1]: 99 ± 0.2%
- IC50 [1, 15]: 363 ± 100 nM
- inhibition at 10 µM [7]: 93.5 ± 1.56%
- IC50 [7]: 1370 ± 570 nM
- inhibition at 10 µM [8]: 79.6 ± 2.23%
- IC50 at 48 h [9]: 1380 ± 1170 nM
- melting point: 213 to 215 °C
- IC50 ([12]; Homo sapiens): 2880 ± 100 nM
- inhibition at 10 µM ([12]; Homo sapiens): 71.9 ± 4.55%
- inhibition at 10 µM [13]: 96.7 ± 0.847%
- IC50 [13, 17]: 1730 ± 300 nM

Compound: Nn1c(SCC(=O)Nc2cc(-c3c[nH]c4ccccc34)n[nH]2)nnc1-c1cccnc1 [Compound 11h, N-(3-(1H-indol-3-yl)-1H-pyrazol-5-yl)-2-((4-amino-5-(pyridine-3-yl)-4H-1,2,4-triazol-3-yl)thio)acetamide]
- inhibition at 10 µM [1]: 98.6 ± 0.417%
- IC50 [1, 15]: 60 nM
- IC50 [1, 16]: 63.9 ± 20 nM
- inhibition at 10 µM [7]: 93.6 ± 0.215%
- IC50 [7]: 1230 ± 60 nM
- inhibition at 10 µM [8]: 77.8 ± 4.16%
- IC50 at 48 h [9]: 1790 ± 630 nM
- CC50 [9]: 1790 ± 630 nM
- melting point: 195 to 197 °C
- IC50 ([12]; Homo sapiens): 3160 ± 230 nM
- inhibition at 10 µM ([12]; Homo sapiens): 65.1 ± 0.595%
- inhibition at 10 µM [13]: 97.8 ± 0.354%
- IC50 [13, 17]: 1150 ± 260 nM
- IC50 [13, 18]: 1150 ± 260 nM

Compound: O=c1[nH]cc(F)c(=O)[nH]1 [5-Fluorouracil, reference compound]
- inhibition at 10 µM [1]: 39.9 ± 6.44%
- IC50 [1, 15]: 12300 ± 2500 nM
- DNA contents of the live population, G0/G1 phase, K562 (K562 cells [4]; 4 µM, 48 h): 30.93%
- DNA contents of the live population, G2/M phase, K562 (K562 cells [4]; 4 µM, 48 h): 16.07%
- DNA contents of the live population, S phase, K562 (K562 cells [4]; 4 µM, 48 h): 48.27%
- inhibition at 10 µM [7]: 26.4 ± 0.513%
- IC50 [7]: 15000 ± 3870 nM
- inhibition at 10 µM [8]: 72.1 ± 3.71%
- IC50 at 48 h [9]: 3620 ± 250 nM
- total numbers of apoptotic cells, A549 (A549 cells [10]; 4 µM): 28.3%
- DNA contents of the live population, G0/G1 phase, A549 (A549 cells [11]): 46.87%
- DNA contents of the live population, G2/M phase, A549 (A549 cells [11]): 13.13%
- DNA contents of the live population, S phase, A549 (A549 cells [11]): 34.63%
- IC50 ([12]; Homo sapiens): 10900 ± 3400 nM
- inhibition at 10 µM ([12]; Homo sapiens): 37 ± 6.18%
- inhibition at 10 µM [13]: 54.3 ± 1.07%
- IC50 [13, 17]: 3460 ± 450 nM
- total numbers of apoptotic cells, K562 (K562 cells [14]): 13.4%
